According to US8796259B2, “N3-heteroaryl substituted triazoles and N5-heteroaryl substituted triazoles useful as axl inhibitors” (Rigel Pharmaceuticals, Inc., priority 2006, dated 2014):

Target: T1, Axl (Homo sapiens, UniProt P30530)
T1 construct: endogenous in cells; host or cells: HeLa cells
T1 sequence (P30530 26-894): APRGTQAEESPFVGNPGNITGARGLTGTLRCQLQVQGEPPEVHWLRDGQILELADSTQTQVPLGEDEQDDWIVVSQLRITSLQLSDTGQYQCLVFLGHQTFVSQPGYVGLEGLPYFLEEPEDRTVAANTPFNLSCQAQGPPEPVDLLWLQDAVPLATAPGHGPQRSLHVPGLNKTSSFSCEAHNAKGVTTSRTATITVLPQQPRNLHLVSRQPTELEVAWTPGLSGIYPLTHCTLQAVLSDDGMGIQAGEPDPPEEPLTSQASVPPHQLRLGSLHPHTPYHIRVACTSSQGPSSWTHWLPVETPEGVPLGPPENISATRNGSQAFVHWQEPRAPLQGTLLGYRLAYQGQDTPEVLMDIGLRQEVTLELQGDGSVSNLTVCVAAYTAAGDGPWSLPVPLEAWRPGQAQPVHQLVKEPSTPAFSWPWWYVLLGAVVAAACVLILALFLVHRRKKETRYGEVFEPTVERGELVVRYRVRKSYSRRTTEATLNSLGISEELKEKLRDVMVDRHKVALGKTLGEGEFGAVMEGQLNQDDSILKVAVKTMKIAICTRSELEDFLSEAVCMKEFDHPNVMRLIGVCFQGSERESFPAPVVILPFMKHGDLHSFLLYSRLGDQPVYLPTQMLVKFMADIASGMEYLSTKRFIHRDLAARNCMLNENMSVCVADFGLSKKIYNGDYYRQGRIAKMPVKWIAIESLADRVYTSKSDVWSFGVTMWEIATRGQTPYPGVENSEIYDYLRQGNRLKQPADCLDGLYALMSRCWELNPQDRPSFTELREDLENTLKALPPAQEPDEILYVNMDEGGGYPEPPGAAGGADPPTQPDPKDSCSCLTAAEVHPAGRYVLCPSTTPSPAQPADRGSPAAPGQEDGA
Experiment: Phospho-Akt in-cell Western assay (inhibition of Axl activity, Axl-antibody cross-linking stimulation)
Assay type: cell-based
Conditions: Hela cells, phospho-Akt readout; compounds of formula (Ia), Table 1
Outline: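 HeLa cells on poly-L-lysine were starved 24 h in 0.5% FCS/DMEM with 500 ng/mL Axl/Fc, pre-treated with compound 1 h at 37 °C, then stimulated 5 min by cross-linked mouse anti-Axl/biotin anti-mouse antibody clusters. After formaldehyde fixation, phospho-Akt was detected by rabbit anti-phospho-Akt and HRP secondary with chemiluminescence read-out.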

| Compound | IC50 |
| --- | --- |
| Cc1csc2c(-n3nc(Nc4ccc(Br)nc4)nc3N)ncnc12 [compound 118, 1-(7-methylthieno [3,2-d]pyrimidin-4-yl)-N^3-(2-bromopyridin-5-yl)-1H-1,2,4-triazole-3,5-diamine] | > 20 µM |
| Cc1csc2c(-n3nc(Nc4cnc5c(c4)CC(N(CC4CC4)CC4CC4)CC5)nc3N)nc(Cl)nc12 (stereo not shown) [compound 104, 1-(2-chloro-7-methylthieno [3,2-d]pyrimidin-4-yl)-N^3-(6-bis-(cyclo-propylmethyl)amino-5,6,7,8-tetrahydro-quinolin-3-yl)-1H-1,2,4-triazole-3,5-diamine] | < 1 µM |
| Cc1csc2c(-n3nc(Nc4cnc5c(c4)CN(C4CCN(C)CC4)CC5)nc3N)nc(Cl)nc12 [compound 86, 1-(2-chloro-7-methylthieno [3,2-d]pyrimidine-4-yl)-N^3-(6-(1-methyl-piperidin-4-yl)-5,6,7,8-tetrahydro-1,6-naphthyridin-3-yl)-1H-1,2,4-triazole-3,5-diamine] | < 1 µM |
| Cc1csc2c(-n3nc(Nc4ccc(N5CCC(CN6CCCC6)CC5)nc4)nc3N)nc(Cl)nc12 [compound 33, 1-(2-chloro-7-methylthieno [3,2-d]pyrimidin-4-yl)-N^3-(6-(4-(pyrrolidin-1-ylmethyl)piperidin-1-yl)pyridin-3-yl)-1H-1,2,4-triazole-3,5-diamine] | < 1 µM |
| CCOC(=O)N1CCc2ncc(Nc3nc(N)n(-c4nc(Cl)nc5c(C)csc45)n3)cc2C1 [compound 19, 1-(2-chloro-7-methylthieno [3,2-d]pyrimidine-4-yl)-N^3-(6-(ethylcarboxy)-5,6,7,8-tetrahydro-1,6-naphthyridin-3-yl)-1H-1,2,4-triazole-3,5-diamine] | > 20 µM |
| Cc1csc2c(-n3nc(Nc4cnc(N5CCN([C@H]6CC7CCC6C7)CC5)c(Cl)c4)nc3N)nc(Cl)nc12 (stereo partly drawn) [compound 109, 1-(2-chloro-7-methylthieno [3,2-d]pyrimidin-4-yl)-N^3-(2-(4-(2S)-bicyclo[2.2.1]heptan-2-ylpiperazin-1-yl)-3-chloropyridin-5-yl)-1H-1,2,4-triazole-3,5-diamine] | 1 to 10 µM |
| Cc1csc2c(-n3nc(Nc4cnc5c(c4)CCN(C4CCCC4)CC5)nc3N)nc(Cl)nc12 [compound 12, 1-(2-chloro-7-methylthieno [3,2-d]pyrimidine-4-yl)-N^3-(7-cyclopentyl-6,7,8,9-tetrahydro-5H-pyrido [3,2-d]azepin-3-yl)-1H-1,2,4-triazole-3,5-diamine] | 1 to 10 µM |
| Cc1csc2c(-n3nc(Nc4ccc(C=CCN5CCOCC5)nc4)nc3N)ncnc12 [compound 126, 1-(7-methylthieno [3,2-d]pyrimidin-4-yl)-N^3-(2-(3-(morpholin-4-yl)propen-1-yl)pyridin-5-yl)-1H-1,2,4-triazole-3,5-diamine] | < 1 µM |
| Nc1nc(Nc2ccc3oc(CN4CCCC4)nc3c2)nn1-c1ncnc2ccc(Cl)cc12 [compound 2, 1-(6-chloro-quinazolin-4-yl)-N^3-(2-(pyrrolidin-1-ylmethyl)benzo [d]oxazol-5-yl)-1H-1,2,4-triazole-3,5-diamine] | 1 to 10 µM |

Further lines, results first:

| IC50 | Compound |
| --- | --- |
| < 1 µM | COc1cc2ncnc(-n3nc(Nc4ccc(N5CCC(CN6CCCC6)CC5)nc4)nc3N)c2cc1OC [compound 34] |
| < 1 µM | Cc1csc2c(-n3nc(Nc4ccc(N5CCCN(C6CCCC6)CC5)nc4)nc3N)nc(Cl)nc12 [compound 10, 1-(2-chloro-7-methylthieno [3,2-d]pyrimidine-4-yl)-N^3-(6-(4-cyclopentyl-1,4-diazepan-1-yl)pyridin-3-yl)-1H-1,2,4-triazole-3,5-diamine] |
| < 1 µM | COc1cc2ncnc(-n3nc(Nc4ccc(N5CCC(N6CCCCC6)CC5)nc4)nc3N)c2cc1OC [compound 27, 1-(6,7-dimethoxy-quinazoline-4-yl)-N^3-(6-(4-piperidin-1-ylpiperidin-1-yl)pyridine-3-yl)-1H-1,2,4-triazole-3,5-diamine] |
| < 1 µM | Cc1cc(Nc2nc(N)n(-c3cc(-c4ccccc4)ncn3)n2)cnc1N1CCC(N2CCCC2)CC1 [compound 130, 1-(6-phenyl-pyrimidine-4-yl)-N^3-(3-methyl-2-(4-pyrrolidin-1-ylpiperidin-1-yl)pyridin-5-yl)-1H-1,2,4-triazole-3,5-diamine] |
| > 20 µM | COc1cc2ncnc(-n3nc(Nc4cnc(N5CCC(N6CCCC6)CC5)nc4)nc3N)c2cc1OC [compound 62, 1-(6,7-dimethoxy-quinazoline-4-yl)-N^3-(2-(4-pyrrolidin-1-ylpiperidin-1-yl)pyrimidin-5-yl)-1H-1,2,4-triazole-3,5-diamine] |
| < 1 µM | COc1cc2ncnc(-n3nc(Nc4ccc(C=CCN5CCC(N6CCN(C)CC6)CC5)nc4)nc3N)c2cc1OC [compound 65, 1-(6,7-dimethoxy-quinazoline-4-yl)-N^3-(6-(3-(4-(4-methyl-piperazin-1-yl)piperidin-1-yl)propenyl)pyridin-3-yl)-1H-1,2,4-triazole-3,5-diamine] |
| < 1 µM | COc1cc2ncnc(-n3nc(Nc4ccc(N5CCCN(C6CCCC6)CC5)nc4)nc3N)c2cc1OC [compound 11, 1-(6,7-dimethoxy-quinazoline-4-yl)-N^3-(6-(4-cyclopentyl-1,4-diazepan-1-yl)pyridin-3-yl)-1H-1,2,4-triazole-3,5-diamine] |
| < 1 µM | Cc1csc2c(-n3nc(Nc4ccc(C=CCN5CCC(N6CCCC6)CC5)nc4)nc3N)ncnc12 [compound 122, 1-(7-methylthieno [3,2-d]pyrimidin-4-yl)-N^3-(2-(3-(4-pyrrolidin-1-yl-piperidin-1-yl)propen-1-yl)pyridin-5-yl)-1H-1,2,4-triazole-3,5-diamine] |
| < 1 µM | COc1cc2ncnc(-n3nc(Nc4cnc(N5CCC(N6CCCC6)CC5)c(C)c4)nc3N)c2cc1OC [compound 42, 1-(6,7-dimethoxy-quinazoline-4-yl)-N^3-(6-(4-(pyrrolidin-1-yl)piperidin-1-yl)-5-methylpyridin-3-yl)-1H-1,2,4-triazole-3,5-diamine] |
| < 1 µM | Cc1csc2c(-n3nc(Nc4cnc5c(c4)CN(C4CCCC4)CC5)nc3N)ncnc12 [compound 97, 1-(7-methylthieno [3,2-d]pyrimidin-4-yl)-N^3-(6-cyclopentyl-5,6,7,8-tetrahydro-1,6-naphthyridin-3-yl)-1H-1,2,4-triazole-3,5-diamine] |
